What was measured:
[1] = Inhibition of HIV 3B integrase infected in human MT4 cells assessed as reduction in viral replication after 5 days by CellTiter-Glo assay; assay type: cell-based; details: Human immunodeficiency virus 1, 3B, MT4, 120 h
[2] = Cytotoxicity against human MT4 cells assessed as reduction in cell viability measured after 5 days by CellTiter-Glo assay; assay type: toxicity, cell-based

O=C(NCc1c(F)cc(F)cc1F)c1cn2c(c(O)c1=O)C(=O)N1CCCC[C@]13COCC[C@H]23
EC50 [1]: 0.00194 µM
CC50 at 120 h [2]: 33.6 µM

O=C(NCc1ccc(F)c(Cl)c1F)c1cn2c(c(O)c1=O)C(=O)N1CCS[C@]13COCC[C@H]23
EC50 [1]: 0.0012 µM
CC50 at 120 h [2]: 10.8 µM

COc1c2n(cc(C(=O)NCc3ccc(F)c(Cl)c3F)c1=O)[C@H]1CCC[C@]13OCCN3C2=O
EC50 [1]: 0.00253 µM
CC50 at 120 h [2]: 4.94 µM

C[C@H]1CCO[C@]23CCC[C@H]2n2cc(C(=O)NCc4ccc(F)c(Cl)c4F)c(=O)c(O)c2C(=O)N13
EC50 [1]: 0.0118 µM
CC50 at 120 h [2]: 17.5 µM

O=C(NCc1ccc(F)c(Cl)c1F)c1cn2c(c(O)c1=O)C(=O)N1CC=CC[C@]13CCOC[C@H]23
EC50 [1]: 0.00462 µM
CC50 at 120 h [2]: 8.02 µM

C[C@@H]1CO[C@@]23CCOC[C@@H]2n2cc(C(=O)NCc4ccc(F)c(Cl)c4F)c(=O)c(O)c2C(=O)N13
EC50 [1]: 0.00182 µM
CC50 at 120 h [2]: 7.53 µM

Source: ChEMBL document CHEMBL3868637, “Treatment of HIV Infections with HIV Integrase Inhibitors” (ACS Med Chem Lett, 2017)
